Source: patent US8173841B2, “Tetrahydro-naphthalene derivatives” (Xention Limited, priority 2003, dated 2012)

Key:
human VR1 = biological target: T1, human VR1 (Homo sapiens, UniProt Q8NER1); test: Capsaicin-induced Ca2+ influx in the human VR1-transfected CHO cell line (Assay 1); type: cell-based; conditions: human VR1-CHOluc9aeq cells, stimulation with 10 nM capsaicin, Fluo-3 AM / FDSS-3000; compounds of purity about 40 to 90%; read-out: Activity Class (IC50 of capsaicin-induced Ca2+ influx)
T1 construct: expressed in transfected cells
T1 sequence (Q8NER1 whole entry): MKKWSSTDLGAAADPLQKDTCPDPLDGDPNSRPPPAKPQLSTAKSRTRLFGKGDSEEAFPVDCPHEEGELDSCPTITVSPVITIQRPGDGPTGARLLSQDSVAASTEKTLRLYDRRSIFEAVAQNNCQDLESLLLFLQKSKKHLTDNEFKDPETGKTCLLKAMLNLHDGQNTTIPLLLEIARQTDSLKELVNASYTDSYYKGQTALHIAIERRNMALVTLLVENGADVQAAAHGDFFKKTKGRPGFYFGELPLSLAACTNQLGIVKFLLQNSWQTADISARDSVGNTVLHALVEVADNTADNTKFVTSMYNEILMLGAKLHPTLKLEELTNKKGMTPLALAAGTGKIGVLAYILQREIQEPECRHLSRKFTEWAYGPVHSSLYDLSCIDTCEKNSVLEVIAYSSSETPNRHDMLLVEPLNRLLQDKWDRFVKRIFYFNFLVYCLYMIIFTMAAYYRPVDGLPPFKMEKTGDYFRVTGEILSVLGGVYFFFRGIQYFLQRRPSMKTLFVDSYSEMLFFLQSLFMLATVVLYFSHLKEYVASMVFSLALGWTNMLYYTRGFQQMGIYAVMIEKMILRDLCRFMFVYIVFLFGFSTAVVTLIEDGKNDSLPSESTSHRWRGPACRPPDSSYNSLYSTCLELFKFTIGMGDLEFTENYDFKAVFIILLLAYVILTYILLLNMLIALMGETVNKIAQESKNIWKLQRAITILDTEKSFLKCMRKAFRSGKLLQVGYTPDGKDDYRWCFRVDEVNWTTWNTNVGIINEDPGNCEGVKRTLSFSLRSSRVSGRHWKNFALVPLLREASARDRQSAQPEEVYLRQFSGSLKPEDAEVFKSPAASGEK
From the text: [Measurement of Capsaicin-Induced Ca^2+ Influx in the Human VR1-Transfected CHO Cell Line] (Assay 1)
(1) Establishment of the Human VR1-CHOluc9aeq Cell Line
Human vanilloid receptor (hVR1) cDNA was cloned from libraries of axotomized dorsal root ganglia (WO 00/29577). The cloned hVR1 cDNA was constructed with pcDNA3 vector and transfected into a CHOluc9aeq cell line. The cell line contains aequorin and CRE-luciferase reporter genes as read-out signals. The transfectants were cloned by limiting dilution in selection medium (DMEM/F12 medium (Gibco BRL) supplemented with 10% FCS, 1.4 mM Sodium pyruvate, 20 mM HEPES, 0.15% Sodium bicarbonate, 100 U/ml penicillin, 100 μg/ml streptomycin, 2 mM glutamine, non-essential amino acids and 2 mg/ml G418). Ca^2+ influx was examined in the capsaicin-stimulated clones. A high responder clone was selected and used for further experiments in the project. The human VR1-CHOluc9aeq cells were maintained in the selection medium and passaged every 3-4 days at 1−2.5×10^5 cells/flask ([…]).
(2) Measurement of Ca^2+ influx using FDSS-3000
Human VR1-CHOluc9aeq cells were suspended in a culture medium which is the same as the selection medium except for G418 and seeded at a density of 1,000 cells per well into 384-well plates (black walled clear-base/Nalge Nunc International). Following the culture for 48 hrs the medium was changed to 2 μM Fluo-3 AM (Molecular Probes) and 0.02% Puronic F-127 in assay buffer (Hank's balanced salt solution (HBSS), 17 mM HEPES (pH7.4), 1 mM Probenecid, 0.1% BSA) and the cells were incubated for 60 min at 25° C. After washing twice with assay buffer the cells were incubated with a test compound or vehicle for 20 min at 25° C. Mobilization of cytoplasmic Ca^2+ was measured by FDSS-3000 (λex=488 nm, λem=540 nm/Hamamatsu Photonics) for 60 sec after the stimulation with 10 nM capsaicin. Integral R was calculated and compared with controls.
The data corresponds to the compounds as yielded by solid phase synthesis and thus to levels of purity of about 40 to 90%. For practical reasons, the compounds are grouped in four classes of activity as follows: IC50=A (< or =) 0.1 μM<B (< or =) 0.5 μM<C (< or =) 1 μM<D

SMILES | IC50 (human VR1) [nM] | melting point
O=C(Nc1cccc(-c2cccc(C(F)(F)F)c2)c1)Nc1cccc2c1CC(O)CC2 (stereo not shown) [Example 1-23] | < 100 | 210 °C
O=C(Nc1cccc(-c2ccccc2Cl)c1)Nc1cccc2c1CC(O)CC2 (stereo not shown) [Example 1-8] | < 100 | –
O=C(Nc1cccc(-c2ccc(C(F)(F)F)cc2)c1)Nc1cccc2c1CC(O)CC2 (stereo not shown) [Example 1-7] | < 100 | –
O=C(NCc1ccc(-c2cccc(C(F)(F)F)c2)cc1)Nc1cccc2c1CC(O)CC2 (stereo not shown) [Example 1-44] | < 100 | 196 to 197 °C
CC(=O)c1ccc(-c2cccc(NC(=O)Nc3cccc4c3CC(O)CC4)c2)cc1 (stereo not shown) [Example 1-27] | < 100 | 216 °C
O=C(NCc1cccc(-c2cccc(OC(F)(F)F)c2)c1)Nc1cccc2c1CC(O)CC2 (stereo not shown) [Example 1-56] | < 100 | 175 to 176 °C
O=C(NCc1cccc(-c2cccc([N+](=O)[O-])c2)c1)Nc1cccc2c1CC(O)CC2 (stereo not shown) [Example 1-63] | < 100 | 191 to 192 °C
COc1ccc(-c2cccc(NC(=O)Nc3cccc4c3CC(O)CC4)c2)cc1 (stereo not shown) [Example 1-14] | < 100 | 203 °C
O=C(NCc1ccc(-c2ccc(Cl)cc2Cl)cc1)Nc1cccc2c1CC(O)CC2 (stereo not shown) [Example 1-40] | < 100 | 177 to 178 °C
Cc1cc(C)cc(-c2cccc(CNC(=O)Nc3cccc4c3CC(O)CC4)c2)c1 (stereo not shown) [Example 1-67] | < 100 | 197 to 198 °C
O=C(NCc1ccc(-c2cccc([N+](=O)[O-])c2)cc1)Nc1cccc2c1CC(O)CC2 (stereo not shown) [Example 1-54] | < 100 | 206 to 207 °C
O=C(Nc1cccc(-c2ccc(F)c(F)c2)c1)Nc1cccc2c1CC(O)CC2 (stereo not shown) [Example 1-17] | < 100 | 216 °C
COc1ccc(-c2cccc(C(=O)Nc3cccc4c3CC(O)CC4)c2)cc1 (stereo not shown) [Example 2-5] | 500 to 1000 | 193.3 to 196.5 °C
CSc1ccc(-c2cccc(NC(=O)Nc3cccc4c3CC(O)CC4)c2)cc1 (stereo not shown) [Example 1-10] | < 100 | –
O=C(NCc1cccc(-c2ccc(F)cc2F)c1)Nc1cccc2c1CC(O)CC2 (stereo not shown) [Example 1-64] | < 100 | 197 to 198 °C
O=C(Nc1cccc(-c2ccc(C(=O)O)cc2)c1)Nc1cccc2c1CC(O)CC2 (stereo not shown) [Example 1-4] | < 100 | 281 to 284 °C
O=C(Nc1cccc(-c2ccccc2C(F)(F)F)c1)Nc1cccc2c1CC(O)CC2 (stereo not shown) [Example 1-9] | < 100 | –
Cc1ccc(-c2cccc(NC(=O)Nc3cccc4c3CC(O)CC4)c2)cc1 (stereo not shown) [Example 1-1, N-(7-Hydroxy-5,6,7,8-tetrahydronaphthalen-1-yl)-N′-(4′-methylbiphenyl-3-yl)urea] | < 100 | 217 to 219 °C
CCOC(=O)c1cccc(-c2cccc(NC(=O)Nc3cccc4c3CC(O)CC4)c2)c1 (stereo not shown) [Example 1-6] | < 100 | 142 to 144 °C
COc1ccc(OC)c(-c2cccc(NC(=O)Nc3cccc4c3CC(O)CC4)c2)c1 (stereo not shown) [Example 1-15] | < 100 | 190 °C
O=C(NCc1cccc(-c2ccc(F)c(Cl)c2)c1)Nc1cccc2c1CC(O)CC2 (stereo not shown) [Example 1-71] | < 100 | 188 to 189 °C
O=C(NCc1ccc(-c2c(F)cccc2F)cc1)Nc1cccc2c1CC(O)CC2 (stereo not shown) [Example 1-50] | < 100 | 204 to 205 °C
O=C(Nc1cccc(-c2cccc(Cl)c2)c1)Nc1cccc2c1CC(O)CC2 (stereo not shown) [Example 1-18] | < 100 | 209 °C

SMILES | IC50 (human VR1) [nM] | melting point
O=C(NCc1ccc(-c2cccc(OC(F)(F)F)c2)cc1)Nc1cccc2c1CC(O)CC2 (stereo not shown) [Example 1-39] | < 100 | 218 to 219 °C
CN(C)c1ccc(-c2ccc(C(=O)Nc3cccc4c3CC(O)CC4)cc2)cc1 (stereo not shown) [Example 2-2] | < 100 | 222.1 to 225 °C
C[S+]([O-])c1ccc(-c2cccc(CNC(=O)Nc3cccc4c3CC(O)CC4)c2)cc1 (stereo not shown) [Example 1-74] | < 100 | 110 to 112 °C
COc1ccc(-c2ccc(CNC(=O)Nc3cccc4c3CC(O)CC4)cc2)cc1OC (stereo not shown) [Example 1-47] | 500 to 1000 | 205 to 206 °C
COc1ccccc1-c1ccc(CNC(=O)Nc2cccc3c2CC(O)CC3)cc1 (stereo not shown) [Example 1-35] | < 100 | 128 to 129 °C
CN(C)c1ccc(-c2cccc(CNC(=O)Nc3cccc4c3CC(O)CC4)c2)cc1 (stereo not shown) [Example 1-57] | < 100 | 207 to 208 °C
CCOC(=O)c1ccc(-c2cccc(NC(=O)Nc3cccc4c3CC(O)CC4)c2)cc1 (stereo not shown) [Example 1-2] | < 100 | 198 to 200 °C
O=C(NCc1cccc(-c2c(F)cccc2F)c1)Nc1cccc2c1CC(O)CC2 (stereo not shown) [Example 1-69] | < 100 | 141 to 142 °C
CSc1ccc(-c2cc(CNC(=O)Nc3cccc4c3CC(O)CC4)ccc2N2CCCCC2)cc1 (stereo not shown) [Example 1-76] | < 100 | 113 to 115 °C
O=C(Nc1cccc(-c2ccc(F)cc2F)c1)Nc1cccc2c1CC(O)CC2 (stereo not shown) [Example 1-5] | < 100 | 187 to 189 °C
CC(C)c1ccc(-c2ccc(CNC(=O)Nc3cccc4c3CC(O)CC4)cc2)cc1 (stereo not shown) [Example 1-52] | < 100 | 202 to 203 °C
O=C(Cc1cccc(-c2ccc(F)cc2)c1)Nc1cccc2c1CC(O)CC2 (stereo not shown) [Example 3-2] | 500 to 1000 | –
O=C(NCc1ccc(-c2cc(Cl)cc(Cl)c2)cc1)Nc1cccc2c1CC(O)CC2 (stereo not shown) [Example 1-53] | < 100 | 204 to 205 °C
O=C(Nc1cccc(-c2ccc(OC(F)(F)F)cc2)c1)Nc1cccc2c1CC(O)CC2 (stereo not shown) [Example 1-25] | < 100 | 210 °C
O=C(Nc1cccc(-c2cc(Cl)cc(Cl)c2)c1)Nc1cccc2c1CC(O)CC2 (stereo not shown) [Example 1-19] | < 100 | 221 °C
COc1ccc(OC)c(-c2cccc(CNC(=O)Nc3cccc4c3CC(O)CC4)c2)c1 (stereo not shown) [Example 1-60] | < 100 | 123 to 124 °C
O=C(NCc1ccc(-c2ccc(F)cc2F)cc1)Nc1cccc2c1CC(O)CC2 (stereo not shown) [Example 1-49] | < 100 | 191 to 192 °C
COc1ccc(-c2cccc(CNC(=O)Nc3cccc4c3CC(O)CC4)c2)cc1 (stereo not shown) [Example 1-73] | < 100 | 188 to 189 °C
O=C(NCc1ccc(-c2ccccc2F)cc1)Nc1cccc2c1CC(O)CC2 (stereo not shown) [Example 1-48] | < 100 | 187 to 188 °C
O=C(NCc1ccc(-c2cccc(Cl)c2)cc1)Nc1cccc2c1CC(O)CC2 (stereo not shown) [Example 1-33] | < 100 | 195 to 196 °C
O=C(Cc1cccc(-c2ccccc2)c1)Nc1cccc2c1CC(O)CC2 (stereo not shown) [Example 3-1, 2-Biphenyl-3-yl-N-(7-hydroxy-5,6,7,8-tetrahydronaphthalen-1-yl)acetamide] | 500 to 1000 | > 134 °C (dec.)
O=C(Nc1cccc(-c2cc(F)cc(F)c2)c1)Nc1cccc2c1CC(O)CC2 (stereo not shown) [Example 1-11] | < 100 | –
O=C(Nc1cccc(-c2ccc(OCCN3CCOCC3)cc2)c1)Nc1cccc2c1CC(O)CC2 (stereo not shown) [Example 1-29] | < 100 | –
